Values quoted from earlier work in US7993684B2, “Method of inhibiting alveolar bone resorption and periodontal membrane loss and composition for internal use to be used therein” (Sunstar Inc., priority 2003, dated 2011).

Columns and labels:
[1] = tested on: periodontal disease-causing bacteria; conditions: Japanese Unexamined Patent Publication No. 1992-283518
[2] = tested on: alveolar bone resorption; conditions: Japanese Unexamined Patent Publication No. 1996-133969

| Compound | Antibacterial activity against periodontal disease-causing bacteria [1] | Inhibition of alveolar bone resorption related to periodontal disease [2] |
| --- | --- | --- |
| O=c1c(-c2ccc(O)cc2)coc2cc(O)cc(O)c12 [genistein] | shows antibacterial activity |  |
| calcium pantothenate |  | inhibit alveolar bone resorption |
